These results are taken from patent publication US20090282496A1, “Androgen Receptor Related Methods for Treating Bladder Cancer” (University of Rochester Medical Center, priority 2008, published 2009).

Marks after values point to notes of the source that are not given here.

Data set [1] concerns TCC-SUP and UMUC3 stable sublines (control-siRNA, AR-siRNA). In words: Tumor incidence (tumorigenicity) study of control-siRNA and AR-siRNA sublines in nude mice. It counts as in vivo, male athymic nude mouse. The source says:
The reporter plasmids [mouse mammary tumor virus (MMTV)-luciferase (Luc) and (ARE)4-Luc (provided by Dr. Michael L. Lu at Harvard Medical School)] as well as a retrovirus vector pMSCV/U6 (Clontech)-AR-siRNA were described in previous studies (Miyamoto et al., Int. J. Cancer, 117:866-72 (2005) and Yeh et al., J. Exp. Med. 198:1899-908 (2003)). Using SuperFect reagent (Qiagen), stable cell lines expressing the AR-siRNA were established by transfecting pMSCV/U6-AR-siRNA into Phi-NX packaging retrovirus producer cells (developed by the Nolan Lab at Stanford University). The target cells (i.e., TCC-SUP, UMUC3, and 5637) were then cultured in the presence of the viral supernatant, and infected cells were selected with puromycin (Sigma).
(§1) Bladder cancer cell lines (TCC-SUP, UMUC3, and 5637) were harvested, washed twice with PBS, and resuspended in Matrigel (BD Bioscience) at a final concentration of 1×10^7 cells/mL. Cells (1×10^6 cells in 100 μl per site) were then injected subcutaneously into the right and left flanks of 6-week-old male athymic nude mouse. Treatment (castration or sham surgery, flutamide [0.5 mg/mouse] or placebo pellet injection, and the recently developed anti-AR molecule ASC-J9 (50 mg/Kg or DMSO injection) (Ohtsu et al., J. Med. Chem., 45:5037-42 (2002)) was initiated either (1) at the same time as tumor cell injection (for tumor incidence studies, n=8 mice in each group) or (2) when the sizes of all tumors reached 40 mm^3 (for tumor progression studies, n=12 tumors from 6 mice in each group). Hormonal pellets were replaced as required (every 90 days). Tumor weight was calculated by the following formula: tumor weight (mg)=tumor length (mm)×[tumor width (mm)]^2×0.5 (Geram et al., Cancer Chemother. Rep., 3:47-52 (1972)). Using calipers, each tumor was measured twice a week until either the tumor size reached 40 mm^3 (for tumor incidence study) (Chen et al., Nat. Med., 10:33-9 (2004)), or until the tumor exceeded 10% of the animal's body weight, at which time the mouse was killed (for tumor progression study).

Another data set relates to TCC-SUP cells. The data set can be described thus: Cell proliferation assay (MTT), TCC-SUP. It is filed as cell-based, human. Particulars: 6 days; for effect on growth: TCC-SUP subline that expresses AR-siRNA.
Another data set has as its system UMUC3 cells. The data set can be described thus: Cell proliferation assay (MTT), UMUC3. It counts as cell-based, human. Particulars: 6 days; for effect on growth: UMUC3 subline that expresses AR-siRNA.
Another data set relates to TCC-SUP xenograft tumors. The data set can be described thus: TCC-SUP mouse xenograft, tumor progression study. It counts as in vivo, male athymic nude mouse.
Excerpt: Total RNA from mouse bladder and xenograft tumor tissues and cultured cells was extracted by the acid guanidinium-phenol-chloroform method as previously described (Miyamoto et al., Cancer, 75:2565-70 (1995)) or by using Trizol reagent (Life Science). Isolated RNAs were reverse transcribed to cDNA using random hexamers as described (Miyamoto et al., Cancer, 75:2565-70 (1995) and Miyoshi et al., Prostate, 56:280-6 (2003)), and amplified by PCR using a primer set specific for the AR gene (Miyoshi et al., Prostate, 56:280-6 (2003)). Using the iCycler (Bio-Rad) and the methods previously described by Miyoshi et al., Prostate, 56:280-6 (2003), real-time quantitative PCR analysis of AR, basic fibroblast growth factor (bFGF), vascular endothelial growth factor (VEGF), and matrix metalloproteinase-9 (MMP-9) was performed on the tissue samples from mouse xenograft tumors. The following PCR primers were designed using Beacon Designer 2 (Premier Biosoft): bFGF: 5′-[…]-3′ (SEQ ID NO. 1) and 5′-[…]-3′ (SEQ ID NO. 2), VEGF: 5′-[…]-3′ (SEQ ID NO. 3) and 5′-[…]-3′ (SEQ ID NO. 4), and MMP-9: 5′-[…]-3′ (SEQ ID NO. 5) and 5′-[…]-3′ (SEQ ID NO. 6). β-actin was used as an internal control.
as §1

Data set [2] concerns BBN-induced bladder tumors. The settings on record: mouse, in vivo.
Procedure: (§2) Animal care was provided in accordance with institutional guidelines. Five to six weeks old ARKO mice (male: n=48; female: n=24) and their wild-type littermates (male: n=48; female: n=24) were supplied ad libitum with tap water containing 0.05% BBN (TCI America) in opaque bottles for 12 weeks, and thereafter with tap water without BBN. To estimate BBN intake, the drinking water was prepared fresh twice a week, and consumption was recorded. […] Before starting BBN treatment, wild-type male mice received surgical castration (n=24) or sham surgery (n=24) at 5 weeks of age. […] Every 90 days, these pellets were replaced. At 20 (n=4 in each group), 30 (n=8 in each group), or 40 (n=12 in each group) weeks of age, the mice were killed by administration of pentobarbital followed by rapid cervical dislocation. Urinary tract specimens were harvested. These specimens were preserved in phosphate-buffered 10% formalin, embedded in paraffin, sectioned, stained with hematoxylin and eosin, and examined microscopically to identify carcinoma or other pathological changes. Paraffin-embedded sections were also used for immunohistochemical analysis. Part of each specimen was rapidly frozen in liquid nitrogen and stored at −80° C. for subsequent RNA analysis.
(§3) Sections (5-7 μm thick) from paraffin-embedded mouse urinary tract tissue and xenograft tumors (see below) were deparaffinized in xylene and rehydrated in a graded ethanol series. Sections were then incubated in 3% hydrogen peroxide to block endogenous peroxidase, with a protein blocking solution containing preimmune rabbit serum, and finally with a 1:500 dilution of primary antibody (rabbit polyclonal anti-proliferating cell nuclear antigen (PCNA) (Santa Cruz). Samples were incubated with peroxidase-conjugated anti-rabbit IgG. The slides were rinsed with PBS, incubated with diaminobenzidine, and finally counterstained with hematoxylin. The TUNEL assay was performed on additional rehydrated sections from paraffin-embedded mouse urinary tract tissue and xenograft tumor using the Fluorescein-FragEL DNA Fragmentation Detection kit (Calbiochem), according to the manufacturer's instructions, followed by counterstaining for DNA with DAPI. The percentage of apoptotic cells was determined by fluorescence microscopy. The percentage of PCNA- and TUNEL-positive cells in 1000 cells counted on each specimen were used to determine the amount of cell proliferation and apoptotic indices, respectively.
The test system of data set [3] is BBN-induced bladder tumors. Particulars: wild-type mice, drinking water with BBN at 0.01-0.05% for 10-20 weeks; previous studies; cited from earlier work.
For data set [4], the system named is AR-negative bladder cancer cell lines (5637). In words: Cell proliferation assay (MTT), AR-negative bladder cancer cell lines. It is filed as cell-based, human. The settings on record: AR-negative 5637 subline that expresses AR-siRNA, 6 days.
In data set [5] the test system is BBN-induced bladder tumors. The data set can be described thus: BBN-induced mouse bladder cancer model (tumor incidence; PCNA and TUNEL indexes of tumors). Particulars: for Carcinoma, No. (%) / Preneoplastic lesions, No. (%): 0.05% BBN.
Procedure: as §2, §3
The target of another data set is T1, AR (Homo sapiens, UniProt P10275).
T1 sequence (P10275 1-920): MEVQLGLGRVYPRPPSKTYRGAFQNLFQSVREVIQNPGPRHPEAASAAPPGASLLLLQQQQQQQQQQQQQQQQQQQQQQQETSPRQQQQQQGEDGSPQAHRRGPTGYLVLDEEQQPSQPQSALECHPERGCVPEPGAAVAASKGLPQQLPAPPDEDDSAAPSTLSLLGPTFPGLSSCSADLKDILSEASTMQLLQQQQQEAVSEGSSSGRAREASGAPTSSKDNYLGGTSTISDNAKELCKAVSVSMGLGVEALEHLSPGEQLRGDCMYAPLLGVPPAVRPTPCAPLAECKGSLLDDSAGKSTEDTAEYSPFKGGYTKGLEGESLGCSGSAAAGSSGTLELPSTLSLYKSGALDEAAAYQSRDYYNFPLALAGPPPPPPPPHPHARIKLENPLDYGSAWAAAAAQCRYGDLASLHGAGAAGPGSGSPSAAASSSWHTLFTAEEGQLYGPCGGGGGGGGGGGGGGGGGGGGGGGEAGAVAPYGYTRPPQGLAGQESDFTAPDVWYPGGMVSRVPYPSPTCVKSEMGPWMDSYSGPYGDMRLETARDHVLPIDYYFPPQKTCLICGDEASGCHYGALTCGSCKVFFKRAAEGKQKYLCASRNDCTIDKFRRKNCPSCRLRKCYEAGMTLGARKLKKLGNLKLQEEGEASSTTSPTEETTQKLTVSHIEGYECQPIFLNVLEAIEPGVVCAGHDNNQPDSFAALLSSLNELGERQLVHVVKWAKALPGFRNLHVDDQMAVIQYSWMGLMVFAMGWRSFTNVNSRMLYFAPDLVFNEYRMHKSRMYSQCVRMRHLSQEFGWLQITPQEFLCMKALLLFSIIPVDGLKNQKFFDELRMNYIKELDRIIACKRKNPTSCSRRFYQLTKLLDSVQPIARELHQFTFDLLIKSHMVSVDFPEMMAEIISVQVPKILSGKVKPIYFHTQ
Particulars: TCC-SUP and UMUC3 cells, MMTV-Luc, 24 h. The protocol: Cell transfections and luciferase assays were performed as previously described (Miyamoto et al., Int. J. Cancer, 117:866-72 (2005) and Miyamoto et al., Proc. Natl. Acad. Sci. USA, 100:4440-4 (2003)). Briefly, bladder cancer cells at a density of 50-60% confluence in 12-well tissue culture plates were transfected with 1.5 μg of plasmid DNA using SuperFect transfection reagent (Qiagen) according to the manufacturer's instructions. […] Cells were harvested, lysed, and assayed for luciferase activity. A Dual-Luciferase Reporter Assay kit (Promega) and luminometer (TD-20/20, Turner BioSystems) were used to determine the level of luciferase activity in the cell extracts.

The subject of data set [6] is BBN-induced bladder cancer. The settings on record: rats; castration had a much stronger effect; cited from earlier work.
The test system of data set [7] is AR-negative 5637 xenograft tumors. In words: 5637 mouse xenograft, tumor progression study. Particulars: androgen deprivation therapy (castration and/or flutamide) at 12 weeks. It counts as in vivo, male athymic nude mouse. As to the method:
Bladder cancer cell lines (TCC-SUP, UMUC3, and 5637) were harvested, washed twice with PBS, and resuspended in Matrigel (BD Bioscience) at a final concentration of 1×10^7 cells/mL. Cells (1×10^6 cells in 100 μl per site) were then injected subcutaneously into the right and left flanks of 6-week-old male athymic nude mouse. […] Med. […] Hormonal pellets were replaced as required (every 90 days). Tumor weight was calculated by the following formula: tumor weight (mg)=tumor length (mm)×[tumor width (mm)]^2×0.5 (Geram et al., Cancer Chemother. Rep., 3:47-52 (1972)).

The mark [8] stands for this setting: harvested TCC-SUP tumors, ASC-J9 50 mg/Kg.
The mark [9] stands for this setting: harvested TCC-SUP tumors, real-time RT-PCR.
The mark [10] stands for this setting: ARKO male mice + DHT pellet 1.5 mg/mouse/90 days, age 20 weeks.
The mark [11] stands for this setting: ARKO male mice + DHT pellet, age 30 weeks.
Where [12] appears, read: ARKO male mice + DHT pellet, age 40 weeks.
[13] abbreviates: male ARKO mice treated with BBN and DHT, 40 weeks.

On to `COc1ccc(C=CC(=O)C=C(O)C=Cc2ccc(OC)c(OC)c2)cc1OC` [ASC-J9, 5-hydroxy-1,7-bis(3,4-dimethoxyphenyl)-1,4,6-heptatrien-3-one], for which, in [1] (vs. control-siRNA cells with control treatment, treatment from tumor cell implantation, tumor positive at 40 mm3), the “latency of tumor formation” value is “substantially prolonged”. Moreover, the “effect on DHT-simulated growth” value with TCC-SUP cells (TCC-SUP, 1 μM ASC-J9 + 1 nM DHT) is listed as “inhibited”. For the same molecule, in the data set on UMUC3 cells (UMUC3, 1 μM ASC-J9 + 1 nM DHT), the “effect on DHT-simulated growth” value is listed as “inhibited”. Further, the “reduction in tumor size” value in the data set with TCC-SUP xenograft tumors (ASC-J9 50 mg/Kg intraperitoneal every other day, over 16 weeks of treatment) came to 58%. Moreover, in the data set with TCC-SUP xenograft tumors (setting [8]), the “apoptotic index of harvested tumors” value is “increased” and the “proliferation index of harvested tumors” value was “decreased”. In addition, in the data set with TCC-SUP xenograft tumors (setting [9]), the “levels of angiogenic factors and metastasis-related factors (bFGF, VEGF, MMP-9) in tumors” value is “reduced”. Further, in the data set on TCC-SUP xenograft tumors (harvested TCC-SUP tumors, real-time RT-PCR, ASC-J9 50 mg/Kg), the “reduction of AR expression in tumors” value turned out to be 39%.
As to `CCCCN(CCCCO)N=O` [BBN, N-butyl-N-(4-hydroxybutyl)nitrosamine], in data set [2], the “hyperplasia in the bladder, incidence” value came out at 17%; the invasive carcinoma incidence is 50%; the “preneoplastic bladder lesions incidence” value is listed as 50-67%; the “preneoplastic lesions (hyperplasias or papillomas) incidence” value turned out to be 75%. The “frequency of bladder carcinomas by 40 weeks” value in data set [3] is listed as 30-100%.
With `C[C@]12CCC(=O)C[C@@H]1CC[C@@H]1[C@@H]2CC[C@]2(C)[C@@H](O)CC[C@@H]12` [DHT, dihydrotestosterone], the effect on growth result (in the data set with TCC-SUP cells; in data set [4]; in the data set with UMUC3 cells) was “did not affect the growth” throughout. Also, the “increase of cell growth” value in the data set on TCC-SUP cells (TCC-SUP, 1 nM DHT, vs. ETOH) is given as 55%; in the data set on UMUC3 cells (UMUC3, 1 nM DHT, vs. ETOH) it was 45%. Also, the “Carcinoma, No. (%)” value in [5] (setting [10]) is reported as 0 (0) No. (%); in data set [5] (setting [11]), 1 (0)∵ No. (%); in data set [5] (setting [12]) it was 3 (25)‡‡ No. (%). For the same molecule, the “Preneoplastic lesions, No. (%)” value in data set [5] (setting [10]) is 0 (0) No. (%); in [5] (setting [11]), 3 (38) No. (%); in [5] (setting [12]), 5 (42) No. (%). For the same molecule, the carcinoma incidence in data set [5] (setting [13]) came out at 25%. The same molecule yielded a preneoplastic lesions incidence in data set [5] (setting [13]) of 42%.
On to `CC(C)(O)C(=O)Nc1ccc([N+](=O)[O-])c(C(F)(F)F)c1` [HF, hydroxyflutamide], for which the “effect on DHT-induction of luciferase” value at AR (5 μM HF + 1 nM DHT) is given as “clearly inhibited”. For the same molecule, on AR (5 μM HF alone), the “agonist activity alone (luciferase)” value is listed as “only marginal agonist activity”. Further, the effect on growth result (with TCC-SUP cells; in data set [4]; in the data set on UMUC3 cells) was “did not affect the growth” each time. The “reduction of the DHT effect on cell growth” value in the data set on TCC-SUP cells (TCC-SUP, 5 μM HF + 1 nM DHT, range given for both lines) is reported as 67-75%; in the data set on UMUC3 cells (UMUC3, 5 μM HF + 1 nM DHT, range given for both lines), 67-75%. Further, the “effect on cell proliferation” value with TCC-SUP cells (control (scrambled siRNA) TCC-SUP subline, 1 nM DHT and/or 5 μM HF) is reported as “antagonized the DHT effect”; in the data set on UMUC3 cells (control (scrambled siRNA) UMUC3 subline, 1 nM DHT and/or 5 μM HF) it was “antagonized the DHT effect”.
Consider `CC(C)(C)NC(=O)[C@H]1CC[C@H]2[C@@H]3CC[C@H]4NC(=O)C=C[C@]4(C)[C@H]3CC[C@]12C` [finasteride, Finasteride], for which, in data set [6], the “development of BBN-induced bladder cancer” value is on record as “only slightly suppressed”.
For the molecule `CC(C)C(=O)Nc1ccc([N+](=O)[O-])c(C(F)(F)F)c1` [flutamide, Flutamide], the “reduction in tumor size” value in [7] was “up to 12%”. Further, the “tumorigenicity of AR-expressing (control-siRNA-transfected) bladder cancer” value in data set [1] (androgen deprivation (castration or flutamide pellet)) is “suppressed tumorigenicity”. Also, the “development of AR-siRNA-expressing tumors” value in data set [1] (castration and flutamide treatment) is given as “little effect”. For the same molecule, in the data set with TCC-SUP xenograft tumors (castration and/or antiandrogen (flutamide pellet), at 16 weeks), the “tumor size vs. control mice” value is recorded as “statistically significantly smaller”. In the data set on TCC-SUP xenograft tumors (setting [9]), the “levels of angiogenic factors and metastasis-related factors (bFGF, VEGF, MMP-9) in tumors” value is recorded as “reduced”.
